Results published in US11639350B2, “Heteroaryldihydropyrimidine derivatives and methods of treating hepatitis B infections” (Janssen Pharmaceutica NV, priority 2018, dated 2023).
Read-outs that look alike come from different tables or passages of the source.

Assays:
[1] = tested on: HBV; assay: HBV inhibitory activity: HBV DNA in the culture medium of HepG2.2.15 cells by q-PCR; type: cell-based; settings: Hepatitis B virus, HepG2.2.15, 144 h
Summary of the method: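 Supernatant HBV DNA quantified by q-PCR after a 6-day compound exposure, with one mid-course medium change, of HepG2.2.15 cells (stably integrated HBV; 40,000 per well, 2% FBS). Eight-point 3-fold series topped at 10 μM for antiviral EC50; separate plates of 5,000 cells per well with 100 μM top give CC50.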

[2] = Cytotoxicity determination in HepG2.2.15 cells (CCK-8); type: cell-based; settings: human, 6 days of compound treatment, CCK-8, highest concentration 100 μM
Summary of the method: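 CC50 is from CCK-8 absorbance (450 nm, 630 nm reference) after 2.5 h with reagent. Before that, compounds were applied for six days, top concentration 100 μM, eight threefold dilutions, one mid-course medium change, to stably HBV-integrated HepG2.2.15 cells plated at 5,000/well in 2% FBS.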

[3] = HepG2.2.15 cells, 6 days of compound treatment, HBV DNA in culture medium by q-PCR, highest concentration 10 μM, read-out: EC50

Question: Which EC50 [1, 3] does the source give for `COC(=O)C1=C(C2CC(O)C2)NC(c2nccs2)=NC1c1ccc(F)cc1Cl` (stereo not shown) [Compound 295, Methyl 4-(2-chloro-4-fluorophenyl)-6-(3-hydroxycyclobutyl)-2-(thiazol-2-yl)-1,4-dihydropyrimidine-5-carboxylate] here?
Answer: Its EC50 is 215 nM.

Question: And the CC50 at 6 days [2]?
Answer: Its CC50 at 6 days is 64200 nM.

Question: What does the source list for `COC(=O)C1=C(C2CCN(C(N)=O)CC2)NC(c2nccs2)=NC1c1ccc(F)cc1Cl` (stereo not shown) [Compound 303, Methyl 6-(1-carbamoylpiperidin-4-yl)-4-(2-chloro-4-fluorophenyl)-2-(thiazol-2-yl)-1,4-dihydropyrimidine-5-carboxylate]?
Answer: EC50 [1, 3]: 54 nM; CC50 at 6 days [2]: > 100000 nM

Question: With `COC(=O)C1=C(C2CCN(S(=O)(=O)[C@H]3C[C@H](C(=O)O)C3)CC2)NC(c2nccs2)=NC1c1ccc(F)c(F)c1C` (stereo partly drawn) [Compound 309C, (trans)-3-((4-(6-(3,4-Difluoro-2-methylphenyl)-5-(methoxycarbonyl)-2-(thiazol-2-yl)-3,6-dihydropyrimidin-4-yl)piperidin-1-yl)sulfonyl)cyclobutanecarboxylic Acid] as the molecule, how does the EC50 [1, 3] read?
Answer: The EC50 was 47 nM.

Question: And the CC50 at 6 days [2]?
Answer: The CC50 at 6 days was 36200 nM.

Question: Which EC50 [1, 3] does the source give for `CCOC(=O)C1=C(C2CCN(S(=O)(=O)[C@H]3C[C@H](C(=O)O)C3)CC2)NC(c2nccs2)=NC1c1cccc(F)c1Cl` (stereo partly drawn) [Compound 319B, (trans)-3-((4-(6-(2-chloro-3-fluorophenyl)-5-(ethoxycarbonyl)-2-(thiazol-2-yl)-3,6-dihydropyrimidin-4-yl)piperidin-1-yl)sulfonyl)-cyclobutanecarboxylic Acid] here?
Answer: The EC50 was 102 nM.

Question: What about the CC50 at 6 days [2] of the same molecule?
Answer: Its CC50 at 6 days is 31300 nM.

Question: With `COC(=O)C1=C(C2CCN(S(=O)(=O)c3cn[nH]c3)CC2)NC(c2nccs2)=NC1c1ccc(F)c(F)c1Cl` (stereo not shown) [Compound 324, methyl 6-(1-((1H-pyrazol-4-yl)sulfonyl)piperidin-4-yl)-4-(2-chloro-3,4-difluorophenyl)-2-(thiazol-2-yl)-1,4-dihydropyrimidine-5-carboxylate] as the molecule, how does the EC50 [1, 3] read?
Answer: Its EC50 is 5 nM.

Question: And the CC50 at 6 days [2]?
Answer: The CC50 at 6 days was 9800 nM.

Question: With `COC(=O)C1=C(C2CCN(S(=O)(=O)c3cnn(CC(O)C(F)(F)F)c3)CC2)NC(c2nccs2)=NC1c1ccc(F)c(F)c1Cl` (stereo not shown) [Compound 325, Methyl 4-(2-chloro-3,4-difluorophenyl)-2-(thiazol-2-yl)-6-(1-((1-(3,3,3-trifluoro-2-hydroxypropyl)-1H-pyrazol-4-yl)sulfonyl)piperidin-4-yl)-1,4-dihydropyrimidine-5-carboxylate] as the molecule, how does the EC50 [1, 3] read?
Answer: The EC50 was 5 nM.

Question: And the CC50 at 6 days [2]?
Answer: The CC50 at 6 days was 7900 nM.

Question: For `CCOC(=O)C1=C(C2CCN(S(=O)(=O)[C@H]3C[C@H](C(=O)O)C3)CC2)NC(c2nccs2)=NC1c1ccc(F)cc1Cl` (stereo partly drawn) [Compound 329B, (trans)-3-((4-(6-(2-Chloro-4-fluorophenyl)-5-(ethoxycarbonyl)-2-(thiazol-2-yl)-3,6-dihydropyrimidin-4-yl)piperidin-1-yl)sulfonyl)cyclobutane-carboxylic Acid], which EC50 [1, 3] is on record?
Answer: Its EC50 is 69 nM.

Question: And the CC50 at 6 days [2]?
Answer: The CC50 at 6 days was 60000 nM.

Question: What does the source list for `COC(=O)C1=C(C2CCN(S(=O)(=O)[C@H]3C[C@H](C(=O)O)C3)CC2)NC(c2nccs2)=NC1c1cccc(F)c1Cl` (stereo partly drawn) [Compound 331C, (trans)-3-((4-(6-(2-Chloro-3-fluorophenyl)-5-(methoxycarbonyl)-2-(thiazol-2-yl)-3,6-dihydropyrimidin-4-yl)piperidin-1-yl)sulfonyl)cyclobutane-carboxylic Acid]?
Answer: EC50 [1, 3]: 192 nM; CC50 at 6 days [2]: > 100000 nM

Question: What does the source list for `CCOC(=O)C1=C(C2CCN(S(=O)(=O)[C@H]3C[C@H](C(=O)O)C3)CC2)NC(c2nccs2)=NC1c1ccc(F)cc1Br` (stereo partly drawn) [Compound 333B, (trans)-3-((4-(6-(2-bromo-4-fluorophenyl)-5-(ethoxycarbonyl)-2-(thiazol-2-yl)-3,6-dihydropyrimidin-4-yl)piperidin-1-yl)sulfonyl)cyclobutane-1-carboxylic Acid]?
Answer: EC50 [1, 3]: 35 nM; CC50 at 6 days [2]: 33100 nM

Question: Which EC50 [1, 3] does the source give for `CCOC(=O)C1=C([C@H]2CC[C@H](C(=O)O)CC2)NC(c2nccs2)=NC1c1ccc(F)c(F)c1Br` (stereo partly drawn) [Compound 347B, (trans)-4-(6-(2-bromo-3,4-difluorophenyl)-5-(ethoxycarbonyl)-2-(thiazol-2-yl)-3,6-dihydropyrimidin-4-yl)cyclohexanecarboxylic Acid] here?
Answer: The EC50 was 110 nM.

Question: And the CC50 at 6 days [2]?
Answer: The CC50 at 6 days was 31400 nM.

Question: With `COC(=O)C1=C(C23CC(C(C)O)(C2)C3)NC(c2nccs2)=NC1c1ccc(F)cc1Cl` (stereo not shown) [Compound 348B, Methyl 4-(2-chloro-4-fluorophenyl)-6-(3-(1-hydroxyethyl)bicyclo[1.1.1]pentan-1-yl)-2-(thiazol-2-yl)-1,4-dihydropyrimidine-5-carboxylate] as the molecule, how does the EC50 [1, 3] read?
Answer: Its EC50 is 63 nM.

Question: What about the CC50 at 6 days [2] of the same molecule?
Answer: Its CC50 at 6 days is 25000 nM.

Question: What does the source list for `CCOC(=O)C1=C(C2CCN(S(=O)(=O)[C@H]3C[C@H](C(=O)O)C3)CC2)NC(c2ncc(F)cc2F)=NC1c1ccc(F)c(F)c1Cl` (stereo partly shown) [Compound 352B]?
Answer: EC50 [1, 3]: 11 nM; CC50 at 6 days [2]: 29400 nM

Question: Which EC50 [1, 3] does the source give for `COC(=O)C1=C(C2CCN(S(=O)(=O)[C@H]3C[C@H](CO)C3)CC2)NC(c2nccs2)=N[C@@H]1c1ccc(F)cc1Cl` [Compound 357A, (trans)-Methyl 4-(2-chloro-4-fluorophenyl)-6-(1-((3-(hydroxymethyl)cyclobutyl)sulfonyl)piperidin-4-yl)-2-(thiazol-2-yl)-1,4-dihydropyrimidine-5-carboxylate] here?
Answer: Its EC50 is 37 nM.

Question: And the CC50 at 6 days [2]?
Answer: Its CC50 at 6 days is 13600 nM.

Question: With `COC(=O)C1=C([C@H]2CC[C@H](S(=O)(=O)NCCC(C)(C)O)CC2)NC(c2nccs2)=NC1c1ccc(F)c(F)c1Cl` (stereo partly drawn) [Compound 358B, (trans)-Methyl 4-(2-chloro-3,4-difluorophenyl)-6-(4-(N-(3-hydroxy-3-methylbutyl)sulfamoyl)cyclohexyl)-2-(thiazol-2-yl)-1,4-dihydropyrimidine-5-carboxylate] as the molecule, how does the EC50 [1, 3] read?
Answer: Its EC50 is 59 nM.

Question: And the CC50 at 6 days [2]?
Answer: The CC50 at 6 days was 12500 nM.

Question: Which results are given for `COC(=O)C1=C(C2CCN(S(=O)(=O)c3cnn(C[C@@H](C)O)c3)CC2)NC(c2nccs2)=NC1c1ccc(F)cc1Cl` (stereo partly drawn) [Compound 360C, methyl 4-(2-chloro-4-fluorophenyl)-6-(1-((1-((R)-2-hydroxypropyl)-1H-pyrazol-4-yl)sulfonyl)piperidin-4-yl)-2-(thiazol-2-yl)-1,4-dihydropyrimidine-5-carboxylate]?
Answer: EC50 [1]: 17 nM; CC50 at 6 days [2]: 17000 nM

Question: Which results are given for `COC(=O)C1=C(C2CCN(S(=O)(=O)c3cnn(C[C@H](C)O)c3)CC2)NC(c2nccs2)=NC1c1ccc(F)cc1Cl` (stereo partly drawn) [Compound 360D, methyl 4-(2-chloro-4-fluorophenyl)-6-(1-((1-((S)-2-hydroxypropyl)-1H-pyrazol-4-yl)sulfonyl)piperidin-4-yl)-2-(thiazol-2-yl)-1,4-dihydropyrimidine-5-carboxylate]?
Answer: EC50 [1, 3]: 105 nM; CC50 at 6 days [2]: 20400 nM

Question: For `COC(=O)C1=C([C@@H]2CCN(S(=O)(=O)CC(F)(F)F)C2)NC(c2nccs2)=NC1c1ccc(F)cc1Cl` (stereo partly drawn) [Compound 364, Methyl 4-(2-chloro-4-fluorophenyl)-2-(thiazol-2-yl)-6-((R)-1-((2,2,2-trifluoroethyl)sulfonyl)pyrrolidin-3-yl)-1,4-dihydropyrimidine-5-carboxylate], which EC50 [1, 3] is on record?
Answer: The EC50 was 208 nM.

Question: And the CC50 at 6 days [2]?
Answer: The CC50 at 6 days was over 100000 nM.

Question: With `COC(=O)C1=C(C23CC(NS(=O)(=O)CCO)(C2)C3)NC(c2nccs2)=NC1c1ccc(F)cc1Cl` (stereo not shown) [Compound 390B, Methyl 4-(2-chloro-4-fluorophenyl)-6-(3-(2-hydroxyethylsulfonamido)bicyclo[1.1.1]pentan-1-yl)-2-(thiazol-2-yl)-1,4-dihydropyrimidine-5-carboxylate] as the molecule, how does the EC50 [1, 3] read?
Answer: The EC50 was 54 nM.

Question: And the CC50 at 6 days [2]?
Answer: Its CC50 at 6 days is 45300 nM.

Question: For `COC(=O)C1=C(C23CC(NC(C)=O)(C2)C3)NC(c2nccs2)=NC1c1ccc(F)cc1Cl` (stereo not shown) [Compound 391B, Methyl 6-(3-acetamidobicyclo[1.1.1]pentan-1-yl)-4-(2-chloro-4-fluorophenyl)-2-(thiazol-2-yl)-1,4-dihydropyrimidine-5-carboxylate], which EC50 [1, 3] is on record?
Answer: The EC50 was 68 nM.

Question: What about the CC50 at 6 days [2] of the same molecule?
Answer: Its CC50 at 6 days is 46800 nM.

Question: What does the source list for `COC(=O)C1=C(C23CC(NS(=O)(=O)CC(O)CO)(C2)C3)NC(c2nccs2)=NC1c1ccc(F)cc1Cl` (stereo not shown) [Compound 393B, Methyl 4-(2-chloro-4-fluorophenyl)-6-(3-(2,3-dihydroxypropylsulfonamido)bicyclo[1.1.1]pentan-1-yl)-2-(thiazol-2-yl)-1,4-dihydropyrimidine-5-carboxylate]?
Answer: EC50 [1, 3]: 100 nM; CC50 at 6 days [2]: 85000 nM

Question: For `COC(=O)C1=C(C2CCN(S(C)(=N)=O)CC2)NC(c2nccs2)=NC1c1ccc(F)cc1Cl` (stereo not shown) [Compound 401B, Methyl 4-(2-chloro-4-fluorophenyl)-6-(1-(S-methylsulfonimidoyl)piperidin-4-yl)-2-(thiazol-2-yl)-1,4-dihydropyrimidine-5-carboxylate], which EC50 [1, 3] is on record?
Answer: Its EC50 is 29 nM.

Question: And the CC50 at 6 days [2]?
Answer: Its CC50 at 6 days is 56200 nM.

Question: Which EC50 [1, 3] does the source give for `COC(=O)C1=C(C23CC(NS(=O)(=O)C4CNC4)(C2)C3)NC(c2nccs2)=NC1c1ccc(F)c(F)c1Cl` (stereo not shown) [Compound 406, Methyl 6-(3-(azetidine-3-sulfonamido)bicyclo[1.1.1]pentan-1-yl)-4-(2-chloro-3,4-difluorophenyl)-2-(thiazol-2-yl)-1,4-dihydropyrimidine-5-carboxylate] here?
Answer: The EC50 was 600 nM.

Question: And the CC50 at 6 days [2]?
Answer: The CC50 at 6 days was 5600 nM.

Question: Which EC50 [1, 3] does the source give for `CCOC(=O)C1=C(C2CCN(S(=O)(=O)C3CC(C)(C(=O)O)C3)CC2)NC(c2nccs2)=NC1c1ccc(F)cc1C` (stereo not drawn) [Compound 420A, (trans)-3-((4-(5-(Ethoxycarbonyl)-6-(4-fluoro-2-methylphenyl)-2-(thiazol-2-yl)-3,6-dihydropyrimidin-4-yl)piperidin-1-yl)sulfonyl)-1-methylcyclobutanecarboxylic Acid] here?
Answer: Its EC50 is 76 nM.

Question: What about the CC50 at 6 days [2] of the same molecule?
Answer: The CC50 at 6 days was 20800 nM.
